Experimental data from patent publication US20230416329A1, “A PEPTIDE WITH DISULFIDE BONDS AND INHIBITORY ACTIVITY AGAINST SERINE PROTEASES, DERIVED HYBRID PEPTIDES THEREOF, AND USES THEREOF” (INSTITUTE OF MATERIA MEDICA , CHINESE ACADEMY OF MEDICAL …, priority 2020, published 2023).

Tests used:
[1] = Stability of GLP-1 and its analogues in human serum; settings: 25% (v/v) human serum; for Remaining peak area (%)/human serum: 0.0 h, peptide 0.03 mM, 37° C.; for remaining at 0.5 h, 0.03 mM / remaining at 2 h, 0.03 mM / remaining at 4 h, 0.03 mM / remaining at 8 h, 0.03 mM / remaining at 12 h, 0.03 mM: human, pH 7
NEP24.11 = NEP24.11 (Homo sapiens, UniProt P08473); assay: Tolerance of GLP-1 and its analogues to NEP24.11 (RP-HPLC remaining peak area); assay type: in vitro ADME; settings: peptide 30 μM, NEP24.11 1.0 ng/μL; for Remaining peak area (%)/NEP24.11: 0.0 h; for Remaining peak area (%)/NEP24.11 / remaining at 0.5 h, 30 μM / remaining at 2 h, 30 μM / remaining at 4 h, 30 μM / remaining at 8 h, 30 μM: 37° C.; for remaining at 0.5 h, 30 μM / remaining at 2 h, 30 μM / remaining at 4 h, 30 μM / remaining at 8 h, 30 μM: isolated NEP24.11 enzyme in buffer; for remaining at 0.5 h, 30 μM: pH 7.4, 0.5 h; for remaining at 2 h, 30 μM: pH 7.4, 2.0 h; for remaining at 4 h, 30 μM: pH 7.4, 4.0 h; for remaining at 8 h, 30 μM: pH 7.4, 8.0 h, read-out: Remaining peak area (%)/NEP24.11
Experimental: (§1) Mix by centrifugation at 8000 rpm for 30 seconds.
Arrange a certain volume of 0.04 μg/μL NEP24.11 enzyme solution in another sterile EP.

chymotrypsin = chymotrypsin (Bos taurus, UniProt P00766); assay: in vitro; settings: isolated enzyme chymotrypsin, pH 7.8, Remaining peak area (%)/chymotrypsin
Procedure, shortened: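 RP-HPLC peak area tracked intact peptide after 37 °C digestion with chymotrypsin (0.05 μg/μL solution, 5 min preincubation). Samples were withdrawn at 1.5-60.0 min and stopped with 10% TFA.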

DPP-IV = DPP-IV (Homo sapiens, UniProt P27487); assay: Tolerance of GLP-1 and its analogues to DPP-IV (RP-HPLC remaining peak area); assay type: in vitro ADME; settings: peptide 25 μM, DPP-IV 0.5 ng/μL, 37° C.; for Remaining peak area (%)/DPP-IV: 0.0 h; for remaining at 0.5 h, 25 μM / remaining at 2 h, 25 μM / remaining at 4 h, 25 μM / remaining at 8 h, 25 μM / remaining at 12 h, 25 μM: isolated DPP-IV enzyme in buffer, pH 8
Experimental: as §1
(2) Arrange a certain volume of 0.005 μg/μL DPP-IV solution in another sterile EP.

trypsin = target: T1, trypsin (Bos taurus, UniProt P00760); assay: in vitro; settings: isolated enzyme trypsin, pH 7.8
T1 sequence (P00760 24-246): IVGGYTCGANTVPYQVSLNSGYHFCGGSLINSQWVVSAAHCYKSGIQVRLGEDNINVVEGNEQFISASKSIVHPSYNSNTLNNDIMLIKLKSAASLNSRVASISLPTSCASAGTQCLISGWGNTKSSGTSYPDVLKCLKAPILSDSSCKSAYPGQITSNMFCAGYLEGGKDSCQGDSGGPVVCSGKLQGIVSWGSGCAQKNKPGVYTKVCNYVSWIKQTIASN
Procedure, shortened: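 Remaining RP-HPLC peak area tracks undigested peptide over time. Samples were quenched with 10% TFA at time points between 1.5 and 60 min during 37 °C digestion. Trypsin was added from a 0.05 μg/μL solution after 5 min of thermal equilibration.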

Chain of NEP24.11 (P08473 whole entry): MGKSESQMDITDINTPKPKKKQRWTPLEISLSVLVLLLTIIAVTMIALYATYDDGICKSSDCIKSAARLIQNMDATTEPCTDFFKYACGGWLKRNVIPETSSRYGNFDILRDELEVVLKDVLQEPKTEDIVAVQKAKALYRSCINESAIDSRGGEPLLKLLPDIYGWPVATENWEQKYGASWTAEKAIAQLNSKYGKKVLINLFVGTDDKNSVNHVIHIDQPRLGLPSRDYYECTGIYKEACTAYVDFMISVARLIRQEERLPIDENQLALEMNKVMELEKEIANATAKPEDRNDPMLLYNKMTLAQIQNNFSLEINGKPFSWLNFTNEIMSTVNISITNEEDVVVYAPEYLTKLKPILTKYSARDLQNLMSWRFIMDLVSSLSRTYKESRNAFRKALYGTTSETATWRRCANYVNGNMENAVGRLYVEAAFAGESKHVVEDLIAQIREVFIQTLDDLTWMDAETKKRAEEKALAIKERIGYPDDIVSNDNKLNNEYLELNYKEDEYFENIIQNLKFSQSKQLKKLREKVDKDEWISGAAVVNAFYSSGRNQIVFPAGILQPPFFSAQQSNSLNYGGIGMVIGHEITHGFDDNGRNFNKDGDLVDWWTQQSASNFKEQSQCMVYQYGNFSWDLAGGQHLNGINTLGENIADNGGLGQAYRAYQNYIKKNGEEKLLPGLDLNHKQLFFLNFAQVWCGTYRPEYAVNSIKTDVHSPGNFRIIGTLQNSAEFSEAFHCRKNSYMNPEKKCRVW
Chain of DPP-IV (P27487 whole entry, species assumed): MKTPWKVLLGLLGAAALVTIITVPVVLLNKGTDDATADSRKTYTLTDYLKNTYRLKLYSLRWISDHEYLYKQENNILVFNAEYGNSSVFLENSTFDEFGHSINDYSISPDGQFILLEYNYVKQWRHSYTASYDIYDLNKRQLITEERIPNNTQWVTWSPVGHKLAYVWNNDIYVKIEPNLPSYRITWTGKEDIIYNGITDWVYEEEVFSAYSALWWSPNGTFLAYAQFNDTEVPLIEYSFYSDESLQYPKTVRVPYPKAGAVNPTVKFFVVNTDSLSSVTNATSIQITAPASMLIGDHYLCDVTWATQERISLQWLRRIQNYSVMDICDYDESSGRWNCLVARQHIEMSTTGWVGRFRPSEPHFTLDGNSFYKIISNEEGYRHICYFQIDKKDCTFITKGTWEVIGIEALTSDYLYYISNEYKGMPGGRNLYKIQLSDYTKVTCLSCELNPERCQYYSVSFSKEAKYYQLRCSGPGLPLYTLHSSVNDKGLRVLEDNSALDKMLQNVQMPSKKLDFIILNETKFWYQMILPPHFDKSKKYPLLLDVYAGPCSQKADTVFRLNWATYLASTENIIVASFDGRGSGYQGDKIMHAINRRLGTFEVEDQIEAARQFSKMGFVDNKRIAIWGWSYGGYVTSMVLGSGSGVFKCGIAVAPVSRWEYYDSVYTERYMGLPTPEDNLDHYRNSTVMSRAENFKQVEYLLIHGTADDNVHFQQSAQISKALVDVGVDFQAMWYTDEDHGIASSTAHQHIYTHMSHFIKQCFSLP

remaining at 0.025 h, 60 μM (chymotrypsin) [%]	remaining at 0.075 h, 60 μM (chymotrypsin) [%]	remaining at 0.1 h, 60 μM (chymotrypsin) [%]	remaining at 0.15 h, 60 μM (chymotrypsin) [%]	remaining at 0.025 h, 60 μM (trypsin) [%]	remaining at 0.05 h, 60 μM (trypsin) [%]	remaining at 0.075 h, 60 μM (trypsin) [%]	remaining at 0.1 h, 60 μM (trypsin) [%]	remaining at 0.15 h, 60 μM (trypsin) [%]	SMILES	Remaining peak area (%)/NEP24.11 (NEP24.11) [%]	remaining at 0.5 h, 30 μM (NEP24.11) [%]	remaining at 2 h, 30 μM (NEP24.11) [%]	remaining at 4 h, 30 μM (NEP24.11) [%]	remaining at 8 h, 30 μM (NEP24.11) [%]	Remaining peak area (%)/DPP-IV (DPP-IV) [%]	remaining at 0.5 h, 25 μM (DPP-IV) [%]	remaining at 2 h, 25 μM (DPP-IV) [%]	remaining at 4 h, 25 μM (DPP-IV) [%]	remaining at 8 h, 25 μM (DPP-IV) [%]	remaining at 12 h, 25 μM (DPP-IV) [%]	further results
68.7 ± 1.6	57.4 ± 2.7	53.1 ± 0.5	49.8 ± 2.8	97.3 ± 8.8	96.6 ± 2	90.4 ± 2.4	90.3 ± 2.5	89.7 ± 3.4	CC[C@H](C)[C@H](NC(=O)[C@H](Cc1ccccc1)NC(=O)[C@H](CCC(=O)O)NC(=O)[C@H](CCCCN)NC(=O)[C@H](C)NC(=O)[C@H](C)NC(=O)[C@H](CCC(N)=O)NC(=O)CNC(=O)[C@H](CCC(=O)O)NC(=O)[C@H](CC(C)C)NC(=O)[C@H](Cc1ccc(O)cc1)NC(=O)[C@H](CO)NC(=O)[C@H](CO)NC(=O)[C@@H](NC(=O)[C@H](CC(=O)O)NC(=O)[C@H](CO)NC(=O)[C@@H](NC(=O)[C@H](Cc1ccccc1)NC(=O)[C@@H](NC(=O)CNC(=O)[C@H](CCC(=O)O)NC(=O)[C@H](C)NC(=O)[C@H](Cc1c[nH]cn1)NC(=O)CNC(=O)CNC(=O)[C@@H](NC(=O)[C@@H]1CCCN1C(=O)[C@@H](NC(=O)CNC(=O)CNC(=O)[C@@H]1CCCN1C(=O)[C@H](Cc1ccccc1)NC(=O)[C@@H]1CSSC[C@H](NC(=O)[C@H](CCCNC(=N)N)NC(=O)CN)C(=O)N[C@@H]([C@@H](C)O)C(=O)N[C@@H](CCCCN)C(=O)N[C@@H](CO)C(=O)N[C@@H]([C@@H](C)CC)C(=O)N2CCC[C@H]2C(=O)N2CCC[C@H]2C(=O)N[C@@H]([C@@H](C)CC)C(=O)N1)[C@@H](C)CC)[C@@H](C)CC)[C@@H](C)O)[C@@H](C)O)C(C)C)C(=O)N[C@@H](C)C(=O)N[C@@H](Cc1c[nH]c2ccccc12)C(=O)N[C@@H](CC(C)C)C(=O)N[C@H](C(=O)N[C@@H](CCCCN)C(=O)NCC(=O)N[C@@H](CCCNC(=N)N)C(=O)NCC(=O)NCC(=O)N[C@@H](CCCCN)C(=O)O)C(C)C [BT1-D-GLP-1]	100.0 ± 0.0	88.2 ± 2.4	85.2 ± 0.5	79.1 ± 3.2	74 ± 1.3	100.0 ± 0.0	72.3 ± 2.4	75.3 ± 1.5	72.6 ± 2	82 ± 3.2	82.5 ± 4.9	Remaining peak area (%)/human serum [1]: 100.0 ± 0.0%; serum stability (in words) [1]: good serum stability; remaining at 0.5 h, 0.03 mM [1]: 68.9 ± 7.1%; remaining at 2 h, 0.03 mM [1]: 95.1 ± 7.5%; remaining at 4 h, 0.03 mM [1]: 89.4 ± 7.9%; remaining at 8 h, 0.03 mM [1]: 54.8 ± 4.1%; remaining at 12 h, 0.03 mM [1]: 49.7 ± 2.5%; remaining at 0.05 h, 60 μM (chymotrypsin): 61.9 ± 1.5%; remaining at 0.25 h, 60 μM (trypsin): 87.3 ± 2.6%; remaining at 0.5 h, 60 μM (trypsin): 88.6 ± 4.4%; remaining at 1 h, 60 μM (trypsin): 87.7 ± 6.2%
54.9 ± 6.6	28.7 ± 2.4	19.2 ± 1.3	9 ± 0.9	76.6 ± 3	76.7 ± 9.1	77 ± 2.4	79.2 ± 3.1	80.2 ± 1	CC[C@H](C)[C@H](NC(=O)[C@H](Cc1ccccc1)NC(=O)[C@H](CCC(=O)O)NC(=O)[C@H](CCCCN)NC(=O)[C@H](C)NC(=O)[C@H](C)NC(=O)[C@H](CCC(N)=O)NC(=O)CNC(=O)[C@H](CCC(=O)O)NC(=O)[C@H](CC(C)C)NC(=O)[C@H](Cc1ccc(O)cc1)NC(=O)[C@H](CO)NC(=O)[C@H](CO)NC(=O)[C@@H](NC(=O)[C@H](CC(=O)O)NC(=O)[C@H](CO)NC(=O)[C@@H](NC(=O)[C@H](Cc1ccccc1)NC(=O)[C@@H](NC(=O)CNC(=O)[C@H](CCC(=O)O)NC(=O)[C@H](C)NC(=O)[C@H](Cc1c[nH]cn1)NC(=O)CNC(=O)CNC(=O)[C@@H](NC(=O)[C@@H]1CCCN1C(=O)[C@@H](NC(=O)CNC(=O)CNC(=O)[C@H](Cc1ccccc1)NC(=O)[C@@H]1CSSC[C@H](N)C(=O)NCC(=O)N[C@@H](CCCNC(=N)N)C(=O)N[C@@H](C)C(=O)N[C@@H]([C@@H](C)O)C(=O)N[C@@H](CCCCN)C(=O)N[C@@H](CO)C(=O)N[C@@H]([C@@H](C)CC)C(=O)N2CCC[C@H]2C(=O)N2CCC[C@H]2C(=O)N[C@@H]([C@@H](C)CC)C(=O)N1)[C@@H](C)CC)[C@@H](C)CC)[C@@H](C)O)[C@@H](C)O)C(C)C)C(=O)N[C@@H](C)C(=O)N[C@@H](Cc1c[nH]c2ccccc12)C(=O)N[C@@H](CC(C)C)C(=O)N[C@H](C(=O)N[C@@H](CCCCN)C(=O)NCC(=O)N[C@@H](CCCNC(=N)N)C(=O)NCC(=O)NCC(=O)N[C@@H](CCCCN)C(=O)O)C(C)C [BT9-D-GLP-1]	100.0 ± 0.0	79.8 ± 3.5	60.2 ± 1.8	56.1 ± 3.4	48.4 ± 1.4	100.0 ± 0.0	81.1 ± 1	77.9 ± 2.9	79.1 ± 1.3	78.8 ± 0.6	72.4 ± 1.9	Remaining peak area (%)/human serum [1]: 100.0 ± 0.0%; serum stability (in words) [1]: good serum stability; remaining at 0.5 h, 0.03 mM [1]: 65.6 ± 14.7%; remaining at 2 h, 0.03 mM [1]: 38.5 ± 13.3%; remaining at 4 h, 0.03 mM [1]: 28%; remaining at 8 h, 0.03 mM [1]: 13.7%; remaining at 12 h, 0.03 mM [1]: 19.6 ± 1.2%; remaining at 0.25 h, 60 μM (trypsin): 79.1 ± 2.2%; remaining at 0.5 h, 60 μM (trypsin): 75.8 ± 3.8%; remaining at 1 h, 60 μM (trypsin): 77.7 ± 0.5%
65.8 ± 2.6	66.2 ± 1.9	60.9 ± 0.8	45.8 ± 5.4	16.9 ± 1.6	3.7 ± 5.3	1.2 ± 1.7	0	0	CC[C@H](C)[C@H](NC(=O)[C@H](Cc1ccccc1)NC(=O)[C@H](CCC(=O)O)NC(=O)[C@H](CCCCN)NC(=O)[C@H](C)NC(=O)[C@H](C)NC(=O)[C@H](CCC(N)=O)NC(=O)CNC(=O)[C@H](CCC(=O)O)NC(=O)[C@H](CC(C)C)NC(=O)[C@H](Cc1ccc(O)cc1)NC(=O)[C@H](CO)NC(=O)[C@H](CO)NC(=O)[C@@H](NC(=O)[C@H](CC(=O)O)NC(=O)[C@H](CO)NC(=O)[C@@H](NC(=O)[C@H](Cc1ccccc1)NC(=O)[C@@H](NC(=O)CNC(=O)[C@H](CCC(=O)O)NC(=O)[C@H](C)NC(=O)[C@H](Cc1c[nH]cn1)NC(=O)CNC(=O)CNC(=O)[C@H](CCCNC(=N)N)NC(=O)[C@H](CO)NC(=O)[C@H](Cc1ccccc1)NC(=O)[C@H](CCCNC(=N)N)NC(=O)[C@H](CCC(N)=O)NC(=O)CNC(=O)CN)[C@@H](C)O)[C@@H](C)O)C(C)C)C(=O)N[C@@H](C)C(=O)N[C@@H](Cc1c[nH]c2ccccc12)C(=O)N[C@@H](CC(C)C)C(=O)N[C@H](C(=O)N[C@@H](CCCCN)C(=O)NCC(=O)N[C@@H](CCCNC(=N)N)C(=O)NCC(=O)NCC(=O)N[C@@H](CCCCN)C(=O)O)C(C)C [N-GLP-1]	100.0 ± 0.0	83.9 ± 2.8	54.9 ± 13.6	51 ± 6.5	56.4 ± 15.8	100.0 ± 0.0	73.9 ± 5	76.9 ± 3	79.6 ± 2.3	74.9 ± 5.3	74.6 ± 10.1	remaining amount after NEP24.11 hydrolysis (NEP24.11; 8 hours): about 56.4%; remaining at 0.05 h, 60 μM (chymotrypsin): 69.3 ± 4%
